Assay results: patent US6586407B1, “Injectable pharmaceutical formulations for partricin derivatives” (Quatex N.V., priority 1998, dated 2003)

Test system: mice
Test: Single dose i.v. toxicity (LD50) in mice
Type: in vivo
Experimental: In single dose testing in mice, the i.v. 50% lethal dose (LD50) of the SPA-S-843 formulation, obtained according to Example 15, is increased from 70 mg/kg to >200 mg/kg

CNc1ccc(C(=O)CC(O)CC[C@H](C)C2OC(=O)C[C@H](O)CC(=O)C[C@H](O)C[C@H](O)C[C@H](O)C[C@H](O)C[C@]3(O)C[C@H](O)[C@@H](C(=O)NCCN(C)C)[C@H](C[C@@H](O[C@@H]4O[C@H](C)[C@@H](O)[C@H](NC(=O)CN(C)C)[C@@H]4O)/C=C/C=C/C=C/C=C/C=C/C=C/C=C/C2C)O3)cc1.N[C@@H](CC(=O)O)C(=O)O.N[C@@H](CC(=O)O)C(=O)O (stereo partly shown) [SPA-S-843, N-dimethylaminoacetyl-partricin A 2-dimethylamino-ethylamide diascorbate]
i.v. 50% lethal dose (LD50): 70 mg/kg
